Measurements reported in ChEMBL document CHEMBL1155188, “Sesquiterpenoids from Pilea cavaleriei subsp. crenata” (Bioorg Med Chem Lett, 2009).
Converted amounts (≈) assume the structure as drawn. The source made the active and inactive calls. The rule behind the calls is not given here.

Columns and labels:
A549 = assay: Cytotoxicity against human A549 cells by SRB assay; format: functional, cell-based
K562 = assay: Cytotoxicity against human K562 cells after 48 hrs by MTT assay; format: functional, cell-based
[1] = Cytotoxicity against human AGZY cells after 48 hrs by MTT assay; format: functional, cell-based
SGC-7901 = assay: Cytotoxicity against human SGC7901 cells after 48 hrs by MTT assay; format: functional, cell-based
EJ = assay: Cytotoxicity against human EJ cells after 48 hrs by MTT assay; format: functional, cell-based
[2] = Cytotoxicity against human BIU87 cells after 48 hrs by MTT assay; format: functional, cell-based
[3] = Cytotoxicity against human GLC82 cells after 48 hrs by MTT assay; format: functional, cell-based
SK-OV-3 = assay: Cytotoxicity against human SKOV3 cells after 48 hrs by MTT assay; format: functional, cell-based
Staphylococcus aureus = assay: Antibacterial activity against Staphylococcus aureus by microdilution assay; format: functional
Escherichia coli = assay: Antibacterial activity against Escherichia coli by microdilution assay; format: functional, organism-based
MCF7 = assay: Cytotoxicity against human MCF7 cells after 48 hrs by MTT assay; format: functional, cell-based; conditions: MCF7, 48 h
[4] = Homo sapiens, K562, 48 h, read-out: IC50

Row | Compound | IC50 (A549) [µg/mL] | IC50 (K562; k562) | IC50 ([1]; agzy) | IC50 (SGC-7901; sgc-7901) | IC50 (EJ) | IC50 [2] | IC50 [3] | IC50 (SK-OV-3) | MIC (Staphylococcus aureus) | IC50 (K562; [4]) [µg/mL] | MIC (Escherichia coli) | IC50 (MCF7) [µg/mL] | IC50 ([1]; Homo sapiens, AGZY, 48 h, read-out: IC50) [µg/mL] | IC50 (SGC-7901; Homo sapiens, SGC-7901, 48 h, read-out: IC50) [µg/mL]
1 | O=c1[nH]cc(F)c(=O)[nH]1 [FLUOROURACIL] | 2 (≈ 15.4 µM) | – | – | – | – | – | – | – | – | – | – | – | – | –
2 | C=C1CC/C=C(\C)C[C@H](OC(=O)/C=C/c2ccc(O)c([N+](=O)[O-])c2)CC(C)(C)C[C@@H]1O | – | Not Active | Not Active | Not Active | Not Active | Not Active | Not Active | Not Active | – | – | – | – | – | –
3 | C=C1CC/C=C(\C)C[C@H](OC(=O)/C=C/c2ccc(O)cc2)CC(C)(C)C[C@@H]1OO | 33.4 (≈ 83.3 µM) | – | Not Active | Not Active | Not Active | Not Active | Not Active | Not Active | 45 µg/mL (≈ 112 µM) | 57.4 (≈ 143 µM) | inactive | 23.4 (≈ 58.4 µM) | – | –
4 | CC(C)[C@@H]1CC[C@]2(C)[C@H]3CC[C@]2(C)[C@H](OC(=O)/C=C/c2ccc(O)cc2)[C@@H]13 | – | – | Not Active | Not Active | Not Active | Not Active | Not Active | Not Active | – | 41.7 (≈ 113 µM) | – | – | – | –
5 | GENTAMICIN | – | – | – | – | – | – | – | – | 0.05 µg/mL | – | 0.05 µg/mL | – | – | –
6 | C/C1=C\CC(C)(C)C[C@@H](OC(=O)/C=C/c2ccc(O)cc2)C/C(C)=C/CC1 | 25.6 (≈ 69.5 µM) | – | – | – | Not Active | Not Active | Not Active | Not Active | inactive | 12 (≈ 32.6 µM) | inactive | 40.5 (≈ 110 µM) | 27.8 (≈ 75.5 µM) | 49.4 (≈ 134 µM)
